# Data taken from patent publication US6277825A (priority 1999, dated 2001).
# Several values for one entry are separate records, joined by “and”; a condition that tells them apart may be missing. Equal entries are not always repeated. Where two headings read alike, the source gives them in different places. Where no end group is shown, it is not given here. [ ]: non-standard residue; d: D form. Gla = N[C@@H](CC(C(=O)O)C(=O)O)C(=O)O
# What was measured:
# [1] = system: Frings audiogenic seizure susceptible mice; assay type: in vivo; conditions: for ED50: mouse, in vivo
# [2] = system: Frings audiogenic seizure-susceptible mice; conditions: mouse, in vivo
# [3] = system: CF No. 1 mice; conditions: mouse, in vivo
# [4] = system: young (<2 weeks old) mice; assay type: in vivo
# [5] = system: young (<2 weeks old) mice; assay type: in vivo; remark: listed apart in the source
# [6] = system: young (<2 weeks old) mice; assay type: in vivo; remark: listed apart in the source
# [7] = 37° C.; 50 μg/ml
compound,measurement,setting,value
"CC1(C)O[C@@H]2[C@@H](CO[C@@]3(COS(N)(=O)=O)OC(C)(C)O[C@@H]23)O1 [Topiramate, reference compound]",ED50,[1],> 150 nmol
same,"TD50 (rotorod performance, minimal motor impairment)",[2],no marked
"Nc1nnc(-c2cccc(Cl)c2Cl)c(N)n1 [Lamotrigine, reference compound]",ED50,[1],146 nmol
same,PI (TD50/ED50),[2],> 2.0
same,"TD50 (rotorod performance, minimal motor impairment)",[2],> 290 nmol
"CCC1(c2ccccc2)C(=O)NC(=O)NC1=O [Phenobarbitol, reference compound]",PI (TD50/ED50),[2],0.5
same,"TD50 (rotorod performance, minimal motor impairment)",[2],68.8 nmol
"CCCC(CCC)C(=O)O [Valproic Acid, reference compound]",ED50,[1],566 nmol
same,PI (TD50/ED50),[2],1.1-2.2
"NC(=O)OCC(COC(N)=O)c1ccccc1 [Felbamate, reference compound]",animals protected,[1]; 30 min,5/8 and 4/8
same,"TD50 (rotorod performance, minimal motor impairment)",[2],> 630 nmol
"CC(C(O)c1ccc(O)cc1)N1CCC(Cc2ccccc2)CC1 (centres unmarked) [Ifenprodil, reference compound]",ED50,[1],~ 25 nmols
same,P.I. (TD50/ED50),[2],< 1
same,TD50,[2],< 25
Conantokin T (GE[Gla][Gla]YQKML[Gla]NLR[Gla]AEVKKNA-NH2; N-terminus assumed; SMILES CSCC[C@H](NC(=O)[C@H](CCCCN)NC(=O)[C@H](CCC(N)=O)NC(=O)[C@H](Cc1ccc(O)cc1)NC(=O)[C@H](CC(C(=O)O)C(=O)O)NC(=O)[C@H](CC(C(=O)O)C(=O)O)NC(=O)[C@H](CCC(=O)O)NC(=O)CN)C(=O)N[C@@H](CC(C)C)C(=O)N[C@@H](CC(C(=O)O)C(=O)O)C(=O)N[C@@H](CC(N)=O)C(=O)N[C@@H](CC(C)C)C(=O)N[C@@H](CCCNC(=N)N)C(=O)N[C@@H](CC(C(=O)O)C(=O)O)C(=O)N[C@@H](C)C(=O)N[C@@H](CCC(=O)O)C(=O)N[C@H](C(=O)N[C@@H](CCCCN)C(=O)N[C@@H](CCCCN)C(=O)N[C@@H](CC(N)=O)C(=O)N[C@@H](C)C(N)=O)C(C)C) [Con T],#Protected/#Tested,[1]; 10 min,0/9
same,% Protected,[1]; 10 min,0%
same,#Protected/#Tested,[1]; 20 min,1/2
same,% Protected,[1]; 20 min,50%
same,#Protected/#Tested,[1]; 30 min,2/6
same,% Protected,[1]; 30 min,33%
same,#Protected/#Tested,[1]; 60 min,4/6
same,% Protected,[1]; 60 min,67%
same,#Protected/#Tested,[1]; 240 min,1/6
same,% Protected,[1]; 240 min,17%
same,anticonvulsant activity,[3],anticonvulsant activity
same,"Catalepsy Test, positive mice/tested",[4]; 30 min,3/4
same,"Catalepsy Test, positive mice/tested",[4]; 60 min,1/4
same,"Sleepy Test, positive mice/tested",[5]; 30 min,4/4
same,"Sleepy Test, positive mice/tested",[5]; 60 min,4/4
same,"Righting Reflex, mice that lost reflex/tested",[6]; 30 min,2/4
same,"Righting Reflex, mice that lost reflex/tested",[6]; 60 min,2/4
same,P.I. (TD50/ED50),[2],13
same,TD50,[2],0.228 nmols
same,behavioral toxicity (rotorod test),[2],No animals exhibited behavioral toxicity
same,stability in biological media,[7],stable in all biological media for up to 4 hours
